Experimental data as given in PubChem BioAssay AID1963845 (Molecular Pharmacology Branch, DTP, NCI, 2024).
“And” between values parts separate entries of the source, which are not always exact repeats. Identical values can stand only once.

System: 429239-143-T-J1-PDC complex spheroid viability
Assay: Anticancer human tumor 429239-143-T-J1-PDC patient-derived small cell lung carcinoma cell line growth inhibition [POLQ]
Conditions: for viability, T/C: stronger effect = lower value
Experimental: Multicellular complex tumor spheroid response to Polymerase (POL) inhibitors (novobiocin, ART-558, RP6685) in combination with a variety of drugs and investigational agents in selected tumor cell lines
The POL inhibitors (novobiocin, ART-558, and RP6685) were evaluated both individually and in combination with standard of care and investigational anticancer small molecules within a complex spheroid model of solid tumors. . Complex spheroids include a stromal component modeled by human endothelial cells (HUVEC) and fibroblasts modeled by human mesenchymal stem cells (MSCs). The concentration ranges selected for each drug and investigational agent were based upon clinically achievable concentrations if the clinical Cmax of the agent was known.
Compounds. The drugs and investigational agents: novobiocin (NSC847541), ART-558 (NSC835418), RP-6685 (NSC848927), peposertib (NSC802822), ceralasertib (NSC780249), elimusertib (NSC800525), camonsertib (NSC841442), AZD-1390 (NSC803789), olaparib (NSC753686), talazoparib (NSC767125), rucaparib (NSC756644), sotorasib (NSC818433), MRTX-1133 (NSC836407), SN-38 (NSC673596), topotecan (NSC609699), epotoside (NSC141540), doxorubicin (NSC123127), gemcitabine (NSC613327), 5-fluorouracil (NSC19893), paclitaxel (NSC125973), vemurafenib (NSC761431), MSA-2 (NSC828583), SN-011 (NSC837082), adavosertib (NSC754352), prexasertib (NSC758257), carboplatin (NSC241240) and oxaliplatin (NSC266046), were obtained from the National Cancer Institute (NCI) Developmental Therapeutics Program Chemical Repository (21). The FDA-approved anticancer drug set is available from the Developmental Therapeutics Program at https://dtp.cancer.gov/organization/dscb/obtaining/. […] The stock solutions were prepared in dimethyl sulfoxide (DMSO, Sigma-Aldrich, St. Louis, MO, cat. D2650), except for the platinum compounds which were prepared in saline (Quality Biological, Gaithersburg, MD, cat. 114-055-101), at 800-fold the tested concentration and stored at -70 degrees C prior to their use. All drugs and investigational agents were tested over a range starting from a high concentration at or near the clinical Cmax and decreasing in half-log increments. If the clinical Cmax for an agent had not been determined, the highest concentration tested was 10 microM, except for SN-38, which was tested at a high concentration of 1 microM.
Cell Culture. All cells were maintained in an incubator at 37 degrees C and 5% CO2 with 95% humidity. The PDC lines were cultured according to standard operating procedures established by the NCI PDMR (https://pdmr.cancer.gov). Table 3 of the manuscript, lists the cell lines along with the number of the three cell types plated to form the mct-spheroids and media for tumor cell growth. After thawing, all PDC lines, except 997537-175-T-J1-PDC and 415267-285-R-J2-PDC, were cultured in Matrigel-coated flasks prepared with a working solution of 1X Ham's F-12 nutrient mix, without supplementation (Thermo Fisher Scientific, cat. 11765054), 100 U/mL penicillin-streptomycin (Thermo Fisher Scientific, cat. 15140122), and 2.5% Matrigel (Corning Inc., Corning, NY, cat. 354248) for the first three passages. The two PDC lines 997537-175-T-J1-PDC and 415267-285-R-J2-PDC were cultured on uncoated flasks. The 857933-349-R-J2-PDC line was cultured in 6C/Colon 1B media containing advanced DMEM/F-12 (Thermo Fisher Scientific, cat. 12634028), 10 mM HEPES (Thermo Fisher Scientific, cat. 15630080), 1X GlutaMAX supplement (Thermo Fisher Scientific, cat. 35050061), 0.1 mg/mL primocin (InvivoGen, San Diego, CA, cat. ant-pm-2), 10% defined fetal bovine serum, heat inactivated (HyClone Laboratories Inc., Logan, UT, cat. SH30070.03HI), 50% L-WRN conditioned media (ATCC, cat. CRL-3276), 1.25 mM N-Acetyl-L-cysteine (Sigma-Aldrich, cat. A9165), 10 mM nicotinamide (Sigma-Aldrich, cat. N0636), 1X B-27 supplement (Thermo Fisher Scientific, cat. 17504044), 1X N-2 supplement (Thermo Fisher Scientific, cat. […]
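Further: luminescence signal used as surrogate measure of viable cells; spheroids exposed to compounds for seven days before readout.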
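Wherever viability, T/C is given: 100% = DMSO vehicle control viability as luminescence relative to vehicle.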

## CCc1c2c(nc3ccc(O)cc13)-c1cc3c(c(=O)n1C2)COC(=O)[C@]3(O)CC + Cc1cccc(N(C)C(=O)C2C(O)CCN2c2nc(C)cc(C(F)(F)F)c2C#N)c1
Curve of first compound, second compound 0.0316 µM
  IC50: < 3.16 nM
Curve of first compound, second compound 0.1 µM
  IC50: < 3.16 nM
Curve of first compound, second compound 0.316 µM
  IC50: < 3.16 nM
Curve of first compound, second compound 1 µM
  IC50: < 3.16 nM
Curve of first compound, second compound 3.16 µM
  IC50: < 3.16 nM
Curve of first compound, second compound 10 µM
  IC50: < 3.16 nM
Second compound 0.0316 µM, first compound 0.00316 µM
  viability, T/C: 16.9%
Second compound 0.0316 µM, first compound 0.01 µM
  viability, T/C: 17.8%
Second compound 0.0316 µM, first compound 0.0316 µM
  viability, T/C: 16.1%
Second compound 0.0316 µM, first compound 0.1 µM
  viability, T/C: 17.5%
Second compound 0.0316 µM, first compound 0.316 µM
  viability, T/C: 13.3%
Second compound 0.0316 µM, first compound 1 µM
  viability, T/C: 5.41%
Second compound 0.1 µM, first compound 0.00316 µM
  viability, T/C: 17.8%
Second compound 0.1 µM, first compound 0.01 µM
  viability, T/C: 18.5%
Second compound 0.1 µM, first compound 0.0316 µM
  viability, T/C: 17.6%
Second compound 0.1 µM, first compound 0.1 µM
  viability, T/C: 19%
Second compound 0.1 µM, first compound 0.316 µM
  viability, T/C: 13.6%
Second compound 0.1 µM, first compound 1 µM
  viability, T/C: 4.17%
Second compound 0.316 µM, first compound 0.00316 µM
  viability, T/C: 16.2%
Second compound 0.316 µM, first compound 0.01 µM
  viability, T/C: 20.4%
Second compound 0.316 µM, first compound 0.0316 µM
  viability, T/C: 16.4%
Second compound 0.316 µM, first compound 0.1 µM
  viability, T/C: 17.6%
Second compound 0.316 µM, first compound 0.316 µM
  viability, T/C: 14.1%
Second compound 0.316 µM, first compound 1 µM
  viability, T/C: 6.26%
Second compound 1 µM, first compound 0.00316 µM
  viability, T/C: 21.1%
Second compound 1 µM, first compound 0.01 µM
  viability, T/C: 16.7%
Second compound 1 µM, first compound 0.0316 µM
  viability, T/C: 17.5%
Second compound 1 µM, first compound 0.1 µM
  viability, T/C: 16.5%
Second compound 1 µM, first compound 0.316 µM
  viability, T/C: 17.5%
Second compound 1 µM, first compound 1 µM
  viability, T/C: 3.94%
Second compound 3.16 µM, first compound 0.00316 µM
  viability, T/C: 19.9%
Second compound 3.16 µM, first compound 0.01 µM
  viability, T/C: 17.4%
Second compound 3.16 µM, first compound 0.0316 µM
  viability, T/C: 21.6%
Second compound 3.16 µM, first compound 0.1 µM
  viability, T/C: 16.1%
Second compound 3.16 µM, first compound 0.316 µM
  viability, T/C: 14.9%
Second compound 3.16 µM, first compound 1 µM
  viability, T/C: 5.15%
Second compound 10 µM, first compound 0.00316 µM
  viability, T/C: 18.9%
Second compound 10 µM, first compound 0.01 µM
  viability, T/C: 17.5%
Second compound 10 µM, first compound 0.0316 µM
  viability, T/C: 20.7%
Second compound 10 µM, first compound 0.1 µM
  viability, T/C: 17.5%
Second compound 10 µM, first compound 0.316 µM
  viability, T/C: 17.9%
Second compound 10 µM, first compound 1 µM
  viability, T/C: 3.41%

## Cn1ncnc1[C@H]1c2n[nH]c(=O)c3cc(F)cc(c23)N[C@@H]1c1ccc(F)cc1
Compound 0.000316 µM
  viability, T/C: 101% and 105% and 93.1%
Compound 0.001 µM
  viability, T/C: 96.8% and 94.6% and 88.7%
Compound 0.00316 µM
  viability, T/C: 78% and 94.1% and 76.6%
Compound 0.01 µM
  viability, T/C: 71% and 86% and 60.1%
Compound 0.0316 µM
  viability, T/C: 40.5% and 78.3% and 47.5%
Compound 0.1 µM
  viability, T/C: 30.4% and 63.1% and 29%
Curve of compound
  IC50: 23.4 nM and > 100 nM

## CC[C@@]1(O)C(=O)OCc2c1cc1n(c2=O)Cc2cc3c(CN(C)C)c(O)ccc3nc2-1
Compound 0.000316 µM
  viability, T/C: 98.5% and 98.7% and 92.7%
Compound 0.001 µM
  viability, T/C: 96.4% and 98.7% and 99.2%
Compound 0.00316 µM
  viability, T/C: 99.3% and 95.3% and 99.2%
Compound 0.01 µM
  viability, T/C: 64% and 86.4% and 63.1%
Compound 0.0316 µM
  viability, T/C: 18% and 9.22% and 16.4%
Compound 0.1 µM
  viability, T/C: 16% and 6.06% and 17.5%
Curve of compound
  IC50: 14.1 nM and 17.2 nM and 13.9 nM

## COc1cccc2c1C(=O)c1c(O)c3c(c(O)c1C2=O)CC(O)(C(=O)CO)CC3OC1CC(N)C(O)C(C)O1 (configuration not stated)
Compound 0.0316 µM
  viability, T/C: 64.3% and 87.3% and 71.1%
Compound 0.1 µM
  viability, T/C: 12.8% and 42.3% and 14.2%
Compound 0.316 µM
  viability, T/C: 11.6% and 7.66% and 13.1%
Compound 1 µM
  viability, T/C: 0.3% and 0.77% and 0.76%
Compound 3.16 µM
  viability, T/C: 0.21% and 0.16% and 0.18%
Compound 10 µM
  viability, T/C: 0.24% and 0.16% and 0.14%
Curve of compound
  IC50: 44.1 nM and 82.1 nM and 49.7 nM

## COc1cc(C2c3cc4c(cc3C(OC3OC5COC(C)OC5C(O)C3O)C3COC(=O)C23)OCO4)cc(OC)c1O (configuration not stated)
Compound 0.0316 µM
  viability, T/C: 99.3% and 97.8% and 98.3%
Compound 0.1 µM
  viability, T/C: 83.6% and 97.1% and 85.7%
Compound 0.316 µM
  viability, T/C: 67.2% and 76.3% and 51.2%
Compound 1 µM
  viability, T/C: 21% and 16.1% and 18%
Compound 3.16 µM
  viability, T/C: 18.4% and 7.9% and 16%
Compound 10 µM
  viability, T/C: 16.8% and 7.28% and 16.6%
Curve of compound
  IC50: 483 nM and 523 nM and 313 nM

## C=CC(=O)N1CCN(c2nc(=O)n(-c3c(C)ccnc3C(C)C)c3nc(-c4c(O)cccc4F)c(F)cc23)C(C)C1 (configuration not stated)
Compound 0.0316 µM
  viability, T/C: 96.4% and 97.7% and 104%
Compound 0.1 µM
  viability, T/C: 100% and 103% and 90.4%
Compound 0.316 µM
  viability, T/C: 98.7% and 103% and 101%
Compound 1 µM
  viability, T/C: 105% and 101% and 102%
Compound 3.16 µM
  viability, T/C: 114% and 103% and 113%
Compound 10 µM
  viability, T/C: 112% and 102% and 108%
Curve of compound
  IC50: > 10000 nM
